In PubChem BioAssay AID1919000 (Molecular Pharmacology Branch, DTP, NCI, 2023):

Test system: 653999-131-R-J2-PDC complex spheroids, growth % test/control
Assay: Anticancer human tumor 653999-131-R-J2-PDC patient-derived lung adenocarcinoma cell line growth inhibition [AhR]
Settings: for IC50: curve of first compound; for viability, T/C: stronger effect = lower value
How it was run: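 Complex tumor spheroids co-cultured with HUVEC and human MSC stroma; AhR antagonists tested in combination with standard-of-care and investigational agents. Top concentration at or near clinical Cmax (else 10 microM), half-log dilutions; growth expressed as percent test/control.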

[1] = second compound 0.1 µM, first compound 0.0316 µM
[2] = second compound 0.1 µM, first compound 0.1 µM
[3] = second compound 0.316 µM, first compound 0.0316 µM
[4] = second compound 0.316 µM, first compound 0.1 µM
[5] = second compound 1 µM, first compound 0.0316 µM
[6] = second compound 1 µM, first compound 0.1 µM
[7] = second compound 3.16 µM, first compound 0.0316 µM
[8] = second compound 3.16 µM, first compound 0.1 µM
[9] = second compound 10 µM, first compound 0.0316 µM
[10] = second compound 10 µM, first compound 0.1 µM
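Also: spheroids exposed to agents for seven days.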
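For viability, T/C in this document: 100% = DMSO vehicle control viability.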

Cn1ncnc1C1c2n[nH]c(=O)c3cc(F)cc(c23)NC1c1ccc(F)cc1 (stereo not given) + Cc1ccccc1N=Nc1ccc(NC(=O)c2ccnn2C)c(C)c1
IC50 (second compound 0.1 µM): > 0.1 µM
IC50 (second compound 0.316 µM): > 0.1 µM
IC50 (second compound 1 µM): > 0.1 µM
IC50 (second compound 3.16 µM): > 0.1 µM
IC50 (second compound 10 µM): > 0.1 µM
viability, T/C (second compound 0.1 µM, first compound 0.000316 µM): 106%
viability, T/C (second compound 0.1 µM, first compound 0.001 µM): 84.6%
viability, T/C (second compound 0.1 µM, first compound 0.00316 µM): 102%
viability, T/C (second compound 0.1 µM, first compound 0.01 µM): 92.3%
viability, T/C [1]: 99.9%
viability, T/C [2]: 98%
viability, T/C (second compound 0.316 µM, first compound 0.000316 µM): 94.3%
viability, T/C (second compound 0.316 µM, first compound 0.001 µM): 111%
viability, T/C (second compound 0.316 µM, first compound 0.00316 µM): 104%
viability, T/C (second compound 0.316 µM, first compound 0.01 µM): 95%
viability, T/C [3]: 91.5%
viability, T/C [4]: 92.8%
viability, T/C (second compound 1 µM, first compound 0.000316 µM): 103%
viability, T/C (second compound 1 µM, first compound 0.001 µM): 96.7%
viability, T/C (second compound 1 µM, first compound 0.00316 µM): 104%
viability, T/C (second compound 1 µM, first compound 0.01 µM): 108%
viability, T/C [5]: 93.3%
viability, T/C [6]: 95.6%
viability, T/C (second compound 3.16 µM, first compound 0.000316 µM): 93.4%
viability, T/C (second compound 3.16 µM, first compound 0.001 µM): 105%
viability, T/C (second compound 3.16 µM, first compound 0.00316 µM): 106%
viability, T/C (second compound 3.16 µM, first compound 0.01 µM): 94.9%
viability, T/C [7]: 101%
viability, T/C [8]: 103%
viability, T/C (second compound 10 µM, first compound 0.000316 µM): 86.2%
viability, T/C (second compound 10 µM, first compound 0.001 µM): 104%
viability, T/C (second compound 10 µM, first compound 0.00316 µM): 106%
viability, T/C (second compound 10 µM, first compound 0.01 µM): 95%
viability, T/C [9]: 109%
viability, T/C [10]: 87.3%

NS(=O)(=O)OCC1CC(n2ccc3c(NC4CCc5ccccc54)ncnc32)CC1O (stereo not given) + Cc1ccccc1N=Nc1ccc(NC(=O)c2ccnn2C)c(C)c1
IC50 (second compound 0.1 µM): > 10 µM
IC50 (second compound 0.316 µM): > 10 µM
IC50 (second compound 1 µM): > 10 µM
IC50 (second compound 3.16 µM): > 10 µM
IC50 (second compound 10 µM): > 10 µM
viability, T/C [1]: 111%
viability, T/C [2]: 120%
viability, T/C (second compound 0.1 µM, first compound 0.316 µM): 118%
viability, T/C (second compound 0.1 µM, first compound 1 µM): 124%
viability, T/C (second compound 0.1 µM, first compound 3.16 µM): 88.9%
viability, T/C (second compound 0.1 µM, first compound 10 µM): 64.7%
viability, T/C [3]: 114%
viability, T/C [4]: 105%
viability, T/C (second compound 0.316 µM, first compound 0.316 µM): 123%
viability, T/C (second compound 0.316 µM, first compound 1 µM): 129%
viability, T/C (second compound 0.316 µM, first compound 3.16 µM): 72.7%
viability, T/C (second compound 0.316 µM, first compound 10 µM): 61.3%
viability, T/C [5]: 115%
viability, T/C [6]: 119%
viability, T/C (second compound 1 µM, first compound 0.316 µM): 124%
viability, T/C (second compound 1 µM, first compound 1 µM): 124%
viability, T/C (second compound 1 µM, first compound 3.16 µM): 63.3%
viability, T/C (second compound 1 µM, first compound 10 µM): 61.4%
viability, T/C [7]: 125%
viability, T/C [8]: 109%
viability, T/C (second compound 3.16 µM, first compound 0.316 µM): 142%
viability, T/C (second compound 3.16 µM, first compound 1 µM): 93.4%
viability, T/C (second compound 3.16 µM, first compound 3.16 µM): 61.8%
viability, T/C (second compound 3.16 µM, first compound 10 µM): 62.3%
viability, T/C [9]: 129%
viability, T/C [10]: 118%
viability, T/C (second compound 10 µM, first compound 0.316 µM): 115%
viability, T/C (second compound 10 µM, first compound 1 µM): 63.7%
viability, T/C (second compound 10 µM, first compound 3.16 µM): 56.7%
viability, T/C (second compound 10 µM, first compound 10 µM): 60%
